Experimental data as given in PMC6979384, “Characterization of the plant homeodomain (PHD) reader family for their histone tail interactions” (Epigenetics & Chromatin, 2020).
Where no end group is shown, it is not given here. [ ]: non-standard residue; d: D form. pS = N[C@@H](COP(=O)(O)O)C(=O)O

Tests used:
Assay in all cases: Histone peptide microarray
Format in all cases: binding, human
AIRE (PP) = conditions: AIRE (PP), GST-tagged; arrays performed twice, n of 4
Text: (§1) To more comprehensively define the histone interactions of the 31 PHD readers identified from the domain microarray analyses, we probed each on an alternate microarray platform containing a library of 293 synthetic histone peptides with single or combinatorial PTMs (Additional file 2: Figure S4 and Additional file 3: Table S2).
(§2) The 31 GST-tagged PHD readers identified in the PHD finger domain array were expressed and purified as previously. Histone peptide arrays and peptide pulldown assays were conducted as recently described (specifically, the optimized protocol from Petell et al. for the former).
(§3) Supplementary file 13072_2020_328_MOESM3_ESM.xlsx: Additional file 3: Table S2. […] Excel Tab Peptide List is a compiled list of the entire 293 histone peptide library with amino acid sequence ranges. […] Each number corresponds to the peptide number designated in Peptide List. Excel Tab Average Signals is a compiled set of binding data: chromatin reader at 0.5 μM vs. entire 293 peptide library. Data is presented as the average and standard deviation of 4 replicates. The average signals are colored to indicate signal intensity with green being strong and white being weak/low. […] Key: red= stronger relative binding; blue = weaker relative binding. Excel Tab Array info summary is a table summarizing the domains, sequence coverage, array signal range, and noise for each of the GST-tagged readers assayed on the peptide microarrays.

BAZ2B = conditions: BAZ2B, GST-tagged; arrays performed twice, n of 4
Text: as §1, §2, §3

BPTF (PB) = conditions: BPTF (PB), GST-tagged; arrays performed twice, n of 4
Text: as §1, §2, §3

CHD4 (PPCC) = conditions: CHD4 (PPCC), GST-tagged; arrays performed twice, n of 4
Text: as §1, §2, §3

CHD5 (PCC) = conditions: CHD5 (PCC), GST-tagged; arrays performed twice, n of 4
Text: as §1, §2, §3

CHD5 (PPCC) = conditions: CHD5 (PPCC), GST-tagged; arrays performed twice, n of 4
Text: as §1, §2, §3

DIDO1 = conditions: DIDO1, GST-tagged; arrays performed twice, n of 4
Text: as §1, §2, §3

DPF2 (PPC2W2) = conditions: DPF2 (PPC2W2), GST-tagged; arrays performed twice, n of 4
Text: as §1, §2, §3

ING1 = conditions: ING1, GST-tagged; arrays performed twice, n of 4
Text: as §1, §2, §3

ING2 = conditions: ING2, GST-tagged; arrays performed twice, n of 4
Text: as §1, §2, §3

ING3 = conditions: ING3, GST-tagged; arrays performed twice, n of 4
Text: as §1, §2, §3

ING4 = conditions: ING4, GST-tagged; arrays performed twice, n of 4
Text: as §1, §2, §3

ING5 = conditions: ING5, GST-tagged; arrays performed twice, n of 4
Text: as §1, §2, §3

KDM4C (TTP) = conditions: KDM4C (TTP), GST-tagged; arrays performed twice, n of 4
Text: as §1, §2, §3

KDM5A (1) = conditions: KDM5A (1), GST-tagged; arrays performed twice, n of 4
Text: as §1, §2, §3

KDM5A (3) = conditions: KDM5A (3), GST-tagged; arrays performed twice, n of 4
Text: as §1, §2, §3

KDM5B (1) = conditions: KDM5B (1), GST-tagged; arrays performed twice, n of 4
Text: as §1, §2, §3

KDM5B (3) = conditions: KDM5B (3), GST-tagged; arrays performed twice, n of 4
Text: as §1, §2, §3

KDM7A = conditions: KDM7A, GST-tagged; arrays performed twice, n of 4
Text: as §1, §2, §3

MLL5 = conditions: MLL5, GST-tagged; arrays performed twice, n of 4
Text: as §1, §2, §3

MORC3 (CW) = conditions: MORC3 (CW), GST-tagged; arrays performed twice, n of 4
Text: as §1, §2, §3

PHF13 = conditions: PHF13, GST-tagged; arrays performed twice, n of 4
Text: as §1, §2, §3

PHF21A = conditions: PHF21A, GST-tagged; arrays performed twice, n of 4
Text: as §1, §2, §3

PHF23 = conditions: PHF23, GST-tagged; arrays performed twice, n of 4
Text: as §1, §2, §3

PHF2 = conditions: PHF2, GST-tagged; arrays performed twice, n of 4
Text: as §1, §2, §3

PHF8 = conditions: PHF8, GST-tagged; arrays performed twice, n of 4
Text: as §1, §2, §3

PHRF1 (RP) = conditions: PHRF1 (RP), GST-tagged; arrays performed twice, n of 4
Text: as §1, §2, §3

RAG2 = conditions: RAG2, GST-tagged; arrays performed twice, n of 4
Text: as §1, §2, §3

SP140L = conditions: SP140L, GST-tagged; arrays performed twice, n of 4
Text: as §1, §2, §3

TAF3 = conditions: TAF3, GST-tagged; arrays performed twice, n of 4
Text: as §1, §2, §3

TRIM66 (PB) = conditions: TRIM66 (PB), GST-tagged; arrays performed twice, n of 4
Text: as §1, §2, §3

For “H2AS1p + K5ac + K9ac + K13ac + K15ac: H2A 1-17 ([pS]GRGK(Ac)QGGK(Ac)ARAK(Ac)AK(Ac)TR; UniProt P0C0S8 2-18, looked up, fragment)”, the “Array Heatmap value (peptide array binding signal)” value (shortened to “Array Heatmap value”) (AIRE (PP)) was 0.5117, the “Array Heatmap value” value (BAZ2B) was 0.4549 and the “Array Heatmap value” value (BPTF (PB)) was 0.3406. For the same substance, the “Array Heatmap value” value (CHD4 (PPCC)) was 0.5891, the “Array Heatmap value” value (CHD5 (PCC)) was 0.7774 and the “Array Heatmap value” value (CHD5 (PPCC)) was 0.5428. The “Array Heatmap value” value (DIDO1) was 0.6263, the “Array Heatmap value” value (DPF2 (PPC2W2)) was 0.6038 and the “Array Heatmap value” value (ING1) was 0.5008. The “Array Heatmap value” value (ING2) was 0.5905, the “Array Heatmap value” value (ING3) was 0.4609 and the “Array Heatmap value” value (ING4) was 0.4636. The “Array Heatmap value” value (ING5) was 0.3496, the “Array Heatmap value” value (KDM4C (TTP)) was 0.5241 and the “Array Heatmap value” value (KDM5A (1)) was 0.482. The “Array Heatmap value” value (KDM5A (3)) was 0.391, the “Array Heatmap value” value (KDM5B (1)) was 0.6538 and the “Array Heatmap value” value (KDM5B (3)) was 0.5168. For the same substance, the “Array Heatmap value” value (KDM7A) was 0.4384, the “Array Heatmap value” value (MLL5) was 0.519 and the “Array Heatmap value” value (MORC3 (CW)) was 0.4032. For the same substance, the “Array Heatmap value” value (PHF13) was 0.6036, the “Array Heatmap value” value (PHF21A) was 0.4797 and the “Array Heatmap value” value (PHF23) was 0.5205. The “Array Heatmap value” value (PHF2) was 0.4023, the “Array Heatmap value” value (PHF8) was 0.3673 and the “Array Heatmap value” value (PHRF1 (RP)) was 0.4027. The “Array Heatmap value” value (RAG2) was 0.2429, the “Array Heatmap value” value (SP140L) was 0.3555 and the “Array Heatmap value” value (TAF3) was 0.2828. For the same substance, the “Array Heatmap value” value (TRIM66 (PB)) was 0.5729.

“H2AS1p + K5ac: H2A 1-17 ([pS]GRGK(Ac)QGGKARAKAKTR; UniProt P0C0S8 2-18, looked up, fragment)” was tested, and the “Array Heatmap value” value (AIRE (PP)) was 0.2932, the “Array Heatmap value” value (BAZ2B) was 0.3559 and the “Array Heatmap value” value (BPTF (PB)) was 0.2697. For the same substance, the “Array Heatmap value” value (CHD4 (PPCC)) was 0.4644, the “Array Heatmap value” value (CHD5 (PCC)) was 0.6294 and the “Array Heatmap value” value (CHD5 (PPCC)) was 0.3972. The “Array Heatmap value” value (DIDO1) was 0.6049, the “Array Heatmap value” value (DPF2 (PPC2W2)) was 0.5432 and the “Array Heatmap value” value (ING1) was 0.485. The “Array Heatmap value” value (ING2) was 0.5878, the “Array Heatmap value” value (ING3) was 0.3526 and the “Array Heatmap value” value (ING4) was 0.3411. For the same substance, the “Array Heatmap value” value (ING5) was 0.2521, the “Array Heatmap value” value (KDM4C (TTP)) was 0.3213 and the “Array Heatmap value” value (KDM5A (1)) was 0.3412. The “Array Heatmap value” value (KDM5A (3)) was 0.4071, the “Array Heatmap value” value (KDM5B (1)) was 0.5673 and the “Array Heatmap value” value (KDM5B (3)) was 0.3803. For the same substance, the “Array Heatmap value” value (KDM7A) was 0.2299, the “Array Heatmap value” value (MLL5) was 0.4623 and the “Array Heatmap value” value (MORC3 (CW)) was 0.3086. The “Array Heatmap value” value (PHF13) was 0.4493, the “Array Heatmap value” value (PHF21A) was 0.3599 and the “Array Heatmap value” value (PHF23) was 0.4819. The “Array Heatmap value” value (PHF2) was 0.5004, the “Array Heatmap value” value (PHF8) was 0.2793 and the “Array Heatmap value” value (PHRF1 (RP)) was 0.3697. For the same substance, the “Array Heatmap value” value (RAG2) was 0.2266, the “Array Heatmap value” value (SP140L) was 0.2923 and the “Array Heatmap value” value (TAF3) was 0.2127. The “Array Heatmap value” value (TRIM66 (PB)) was 0.4856.
